What was measured:
U2OS [1] = experiment: In vitro effect on the S phase of cell cycle of U2OS cells upon incubation at 37 degree for 24 hours in FCM assay at concentration of 500 nM; type: functional, Homo sapiens
U2OS [2] = experiment: In vitro effect on the G1 phase of cell cycle of U2OS cells upon incubation at 37 degree for 24 hours in FCM assay at concentration of 500 nM; type: functional, Homo sapiens
U2OS [3] = experiment: In vitro effect on the G2/M phase of cell cycle of U2OS cells upon incubation at 37 degree for 24 hours in FCM assay at concentration of 500 nM; type: functional, Homo sapiens
U2OS [4] = experiment: In vitro effect on the G2/M phase of cell cycle of U2OS cells upon incubation at 37 degree for 24 hours in FCM assay; all the cell died at tested concentration (500 nM); type: functional, cell-based; settings: Homo sapiens
U2OS [5] = experiment: In vitro effect on the S phase of cell cycle of U2OS cells upon incubation at 37 degree for 24 hours in FCM assay; all the cell died at tested concentration (500 nM); type: functional, cell-based; settings: Homo sapiens
U2OS [6] = experiment: In vitro effect on the G1 phase of cell cycle of U2OS cells upon incubation at 37 degree for 24 hours in FCM assay; all the cell died at tested concentration (500 nM); type: functional, cell-based; settings: Homo sapiens

Compound | Content of cell cycle (U2OS [1]) | Content of cell cycle (U2OS [2]) | Content of cell cycle (U2OS [3]) | also measured
COc1ccc(-c2oc3cc(OC)cc(OC)c3c(=O)c2C(F)(F)F)cc1 | 49.24% | 44.09% | 6.67% | 
COc1cc(OC)c2c(=O)cc(-c3cc(C(F)(F)F)c(OC)c(C(F)(F)F)c3)oc2c1 | 44.92% | 55.08% | 0% | 
COc1ccc(-c2c(C(F)(F)F)oc3cc(OC)cc(OC)c3c2=O)cc1 |  |  |  | Activity (U2OS [1]): 48.02%; Activity (U2OS [2]): 46.69%; Activity (U2OS [3]): 5.29%
COc1cc(OC)c2c(c1)OC(c1ccccc1)=CC2(O)C(F)(F)F (stereo not given) |  |  |  | Activity (U2OS [4]): all the cells died at tested concentration (500 nM); Activity (U2OS [5]): all the cells died at tested concentration (500 nM); Activity (U2OS [6]): all the cells died at tested concentration (500 nM)
COc1cc(OC)c2c(=O)c(C(F)(F)F)c(-c3ccccc3)oc2c1 | 31.95% | 53.06% | 14.99% | 
